In paper PMC12586182 (Frontiers in Oncology, 2025):
pIC50: −log10 of the molar value.

Key:
Assay in all cases: Cell viability assay (ATPlite)
Type in all cases: cell-based
A-498 = conditions: Homo sapiens, A498; A-498 cell line, 72 hours incubation
In short: (§1)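 Cells grew 24 h, then received 9-point √10-fold compound series in duplicate (0.4% DMSO final) for 72 h. ATP content was read by ATPlite luminescence and normalized to vehicle controls as % viability. IC50 came from a four-parameter logistic fit; curves with F-value above 1.5 were invalidated, with IC50 then set at the top concentration.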

ACHN = conditions: Homo sapiens; ACHN cell line, 72 hours incubation
In short: as §1

AP-1060 = conditions: Homo sapiens; AP-1060 cell line, 72 hours incubation
In short: as §1

BL-70 = conditions: Homo sapiens; BL-70 cell line, 72 hours incubation
In short: as §1

C-33 A = conditions: Homo sapiens; C-33 A cell line, 72 hours incubation
In short: as §1

CCF-STTG1 = conditions: Homo sapiens; CCF-STTG1 cell line, 72 hours incubation
In short: as §1

CCRF-HSB-2 = conditions: Homo sapiens; CCRF-HSB-2 cell line, 72 hours incubation
In short: as §1

Daoy = conditions: Homo sapiens; Daoy cell line, 72 hours incubation
In short: as §1

HCC1954 = conditions: Homo sapiens; HCC1954 cell line, 72 hours incubation
In short: as §1

HCC827 = conditions: Homo sapiens; HCC827 cell line, 72 hours incubation
In short: as §1

HL-60 = conditions: Homo sapiens; HL-60 cell line, 72 hours incubation
In short: as §1

HT-1080 = conditions: Homo sapiens; HT-1080 cell line, 72 hours incubation
In short: as §1

Hs 578T = conditions: Homo sapiens; Hs 578T cell line, 72 hours incubation
In short: as §1

Hs 852.T = conditions: Homo sapiens; Hs 852.T cell line, 72 hours incubation
In short: as §1

J82 = conditions: Homo sapiens; J82 cell line, 72 hours incubation
In short: as §1

JM-1 = conditions: Homo sapiens, JM1; JM-1 cell line, 72 hours incubation
In short: as §1

Jurkat E6.1 = conditions: Homo sapiens; Jurkat E6.1 cell line, 72 hours incubation
In short: as §1

Kasumi-1 = conditions: Homo sapiens; Kasumi-1 cell line, 72 hours incubation
In short: as §1

LNCaP clone FGC = conditions: Homo sapiens; LNCaP clone FGC cell line, 72 hours incubation
In short: as §1

MKN45 = conditions: Homo sapiens, MKN-45; MKN45 cell line, 72 hours incubation
In short: as §1

MSTO-211H = conditions: Homo sapiens; MSTO-211H cell line, 72 hours incubation
In short: as §1

RKO = conditions: Homo sapiens; RKO cell line, 72 hours incubation
In short: as §1

RL = conditions: Homo sapiens; RL cell line, 72 hours incubation
In short: as §1

SK-BR-3 = conditions: Homo sapiens; SK-BR-3 cell line, 72 hours incubation
In short: as §1

SK-N-FI = conditions: Homo sapiens; SK-N-FI cell line, 72 hours incubation
In short: as §1

SW48 = conditions: Homo sapiens; SW48 cell line, 72 hours incubation
In short: as §1

SW684 = conditions: Homo sapiens; SW684 cell line, 72 hours incubation
In short: as §1

SW900 = conditions: Homo sapiens; SW900 cell line, 72 hours incubation
In short: as §1

SW948 = conditions: Homo sapiens; SW948 cell line, 72 hours incubation
In short: as §1

T24 = conditions: Homo sapiens, T-24; T24 cell line, 72 hours incubation
In short: as §1

THP-1 = conditions: Homo sapiens; THP-1 cell line, 72 hours incubation
In short: as §1

UM-UC-3 = conditions: Homo sapiens, UMUC3; UM-UC-3 cell line, 72 hours incubation
In short: as §1

**Q.** How did the pIC50 (A-498) turn out when `O=C(c1ccc(Oc2ccccc2)cc1Cl)c1c[nH]c2ncnc(N[C@@H]3CC[C@@H](CO)OC3)c12` [nemtabrutinib] was run?
**A.** 5.19

**Q.** And the pIC50 (ACHN)?
**A.** 5.64

**Q.** What about the pIC50 (AP-1060) of the same compound?
**A.** 6.13

**Q.** What about the pIC50 (BL-70) of the same compound?
**A.** 6.30

**Q.** What about the pIC50 (C-33 A) of the same compound?
**A.** 5.88

**Q.** What about the pIC50 (CCF-STTG1) of the same compound?
**A.** 4.78

**Q.** What about the pIC50 (CCRF-HSB-2) of the same compound?
**A.** 6.43

**Q.** What about the pIC50 (Daoy) of the same compound?
**A.** 5.14

**Q.** And the pIC50 (HCC1954)?
**A.** 5.88

**Q.** And the pIC50 (HCC827)?
**A.** 5.33

**Q.** What about the pIC50 (HL-60) of the same compound?
**A.** 5.66

**Q.** What about the pIC50 (HT-1080) of the same compound?
**A.** 5.32

**Q.** And the pIC50 (Hs 578T)?
**A.** 4.94

**Q.** What about the pIC50 (Hs 852.T) of the same compound?
**A.** 5.40

**Q.** And the pIC50 (J82)?
**A.** 5.10

**Q.** What about the pIC50 (JM-1) of the same compound?
**A.** 4.62

**Q.** What about the pIC50 (Jurkat E6.1) of the same compound?
**A.** 6.57

**Q.** What about the pIC50 (Kasumi-1) of the same compound?
**A.** 5.85

**Q.** And the pIC50 (LNCaP clone FGC)?
**A.** < 4.50

**Q.** And the pIC50 (MKN45)?
**A.** 5.28

**Q.** And the pIC50 (MSTO-211H)?
**A.** 5.41

**Q.** What about the pIC50 (RKO) of the same compound?
**A.** 5.92

**Q.** What about the pIC50 (RL) of the same compound?
**A.** 5.39

**Q.** And the pIC50 (SK-BR-3)?
**A.** 5.73

**Q.** What about the pIC50 (SK-N-FI) of the same compound?
**A.** 5.40

**Q.** What about the pIC50 (SW48) of the same compound?
**A.** 6.35

**Q.** What about the pIC50 (SW684) of the same compound?
**A.** 4.92

**Q.** What about the pIC50 (SW900) of the same compound?
**A.** 5.64

**Q.** What about the pIC50 (SW948) of the same compound?
**A.** 5.45

**Q.** What about the pIC50 (T24) of the same compound?
**A.** 5.55

**Q.** And the pIC50 (THP-1)?
**A.** 5.81

**Q.** And the pIC50 (UM-UC-3)?
**A.** 5.27
